From patent publication US9957264B2 (Merck Sharp & Dohme Corp., priority 2013, dated 2018)

Columns and labels:
[1] = target: JAK1 (recombinant purified GST-tagged catalytic domain) (Homo sapiens (Human), UniProt P23458); assay: Jak Biochemical HTRF Assay (JAK1); conditions: [ATP] 31.8 μM
Summary of the method: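 Under a 120 min room-temperature, ATP-initiated reaction, peptide phosphorylation was detected by Eu-pY20/streptavidin-Dylight 650 HTRF after EDTA stop. IC50 values derive from percent inhibition curves.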

[2] = target: JAK2 (recombinant purified GST-tagged catalytic domain) (Homo sapiens (Human), UniProt O60674); assay: Jak Biochemical HTRF Assay (JAK2); conditions: [ATP] 8.5 μM
JAK2 (recombinant purified GST-tagged catalytic domain), sequence (O60674 849-1124): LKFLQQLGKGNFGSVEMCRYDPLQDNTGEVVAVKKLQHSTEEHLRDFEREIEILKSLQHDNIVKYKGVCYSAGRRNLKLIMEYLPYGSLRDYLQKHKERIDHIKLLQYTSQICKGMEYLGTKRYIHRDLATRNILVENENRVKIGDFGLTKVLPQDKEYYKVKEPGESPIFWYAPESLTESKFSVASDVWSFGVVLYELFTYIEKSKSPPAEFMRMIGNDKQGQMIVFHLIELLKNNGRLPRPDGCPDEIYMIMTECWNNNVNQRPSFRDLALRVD

JAK1 (recombinant purified GST-tagged catalytic domain), sequence (P23458 875-1153): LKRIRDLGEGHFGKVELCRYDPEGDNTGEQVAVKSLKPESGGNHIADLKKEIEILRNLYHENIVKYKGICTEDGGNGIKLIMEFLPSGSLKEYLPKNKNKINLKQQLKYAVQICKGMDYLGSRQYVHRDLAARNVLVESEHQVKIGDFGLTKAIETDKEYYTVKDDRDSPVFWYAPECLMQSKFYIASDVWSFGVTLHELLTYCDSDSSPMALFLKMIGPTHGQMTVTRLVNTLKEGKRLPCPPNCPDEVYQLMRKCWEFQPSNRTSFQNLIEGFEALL

SMILES | IC50 [1] | IC50 [2]
CN(C)S(=O)(=O)c1ccc(Nc2nn(C3(CC#N)CCN(Cc4cccc(F)c4)CC3)c3cc[nH]c(=O)c23)cc1 [Example 8-8, 4-({1-[4-(cyanomethyl)-1-(3-fluorobenzyl)piperidin-4-yl]-4-oxo-4,5-dihydro-1H-pyrazolo[4,3-c]pyridin-3-yl}amino)-N,N-dimethylbenzenesulfonamide] | 0.29 nM | 0.52 nM
CC(C)C(C)(C)S(=O)(=O)c1ccc(Nc2nn([C@]3(CC#N)CCCOC3)c3cc[nH]c(=O)c23)cc1 [Example 5-192, {(3S)-3-[4-oxo-3-({4-[(1,1,2-trimethylpropyl)sulfonyl]phenyl}amino)-4,5-dihydro-1H-pyrazolo[4,3-c]pyridin-1-yl]tetrahydro-2H-pyran-3-yl}acetonitrile] | 0.17 nM | 0.3 nM
CC(C)(C)OC(=O)N1CC(CC#N)(n2nc(Nc3ccc(S(=O)(=O)C(F)(F)F)cc3)c3c(=O)[nH]ccc32)C1 [Example 5-47, tert-butyl 3-(cyanomethyl)-3-[4-oxo-3-({4-[(trifluoromethyl)sulfonyl]phenyl}amino)-4,5-dihydro-1H-pyrazolo[4,3-c]pyridin-1-yl]azetidine-1-carboxylate] | 7.27 nM | 108 nM
COC(=O)[C@@H]1CC[C@@](CC#N)(n2nc(Nc3ccc(S(C)(=O)=O)cc3)c3c(=O)[nH]ccc32)CO1 (single isomer, unassigned) [Example 5-33, (2S,5S or 2R,5R)-methyl 5-(cyanomethyl)-5-(3-((4-(methylsulfonyl)phenyl)amino)-4-oxo-4,5-dihydro-1H-pyrazolo[4,3-c]pyridin-1-yl)tetrahydro-2H-pyran-2-carboxylate] | 0.03 nM | 0.23 nM
CN(C)C(=O)[C@@H]1CC[C@@](CC#N)(n2nc(Nc3ccc(Cl)cc3)c3c(=O)[nH]ccc32)CO1 [Example 23, (2S,5S)-5-(3-((4-chlorophenyl)amino)-4-oxo-4,5-dihydro-1H-pyrazolo[4,3-c]pyridin-1-yl)-5-(cyanomethyl)-N,N-dimethyltetrahydro-2H-pyran-2-carboxamide] | 0.23 nM | 2.5 nM
N#CC[C@]1(n2nc(Nc3ccc(C(F)(F)F)cc3)c3c(=O)[nH]ccc32)CC[C@@H](Nc2ccccc2)CC1 [Example 18-3, Cis 2-(1-(4-oxo-3-((4-(trifluoromethyl)phenyl)amino)-4,5-dihydro-1H-pyrazolo[4,3-c]pyridin-1-yl)-4-(phenylamino)cyclohexyl)acetonitrile] | 41.1 nM | 1290 nM
CC(C)(C)OC(=O)[C@@H]1CC[C@@](CC#N)(n2nc(Nc3ccc(S(=O)(=O)N4CCOCC4)cc3)c3c(=O)[nH]ccc32)CO1 [Example 5-203, (2S,5S)-tert-butyl 5-(cyanomethyl)-5-(3-((4-(morpholinosulfonyl)phenyl)amino)-4-oxo-4,5-dihydro-1H-pyrazolo[4,3-c]pyridin-1-yl)tetrahydro-2H-pyran-2-carboxylate] | 0.15 nM | 0.27 nM
CC(C)(C)OC(=O)N1CCC(CC#N)(n2nc(Nc3ccc(S(=O)(=O)N4CCCCC4)cc3)c3c(=O)[nH]ccc32)CC1 [Example 5-293, tert-butyl 4-(cyanomethyl)-4-(4-oxo-3-((4-(piperidin-1-ylsulfonyl)phenyl)amino)-4,5-dihydro-1H-pyrazolo[4,3-c]pyridin-1-yl)piperidine-1-carboxylate] | 0.43 nM | 0.68 nM
N#CC[C@]1(n2nc(Nc3ccc(C(N)C(F)(F)F)cc3)c3c(=O)[nH]ccc32)CCCC[C@H]1F (single isomer, unassigned) [Example 5-177, {(1R,2R)-1-[3-({4-[(1S or 1R)-1-amino-2,2,2-trifluoroethyl]phenyl}amino)-4-oxo-4,5-dihydro-1H-pyrazolo[4,3-c]pyridin-1-yl]-2-fluorocyclohexyl} acetonitrile] | 0.09 nM | 0.16 nM
CN(C)S(=O)(=O)c1ccc(Nc2nn(C3(CC#N)CCN(Cc4ccc(N5CCCC5=O)cc4)CC3)c3cc[nH]c(=O)c23)cc1 [Example 8-14, 4-[(1-{4-(cyanomethyl)-1-[4-(2-oxopyrrolidin-1-yl)benzyl]piperidin-4-yl}-4-oxo-4,5-dihydro-1H-pyrazolo[4,3-c]pyridin-3-yl)amino]-N,N-dimethylbenzenesulfonamide] | 0.73 nM | 2.84 nM
CC(C)(C)OC(=O)N1CC(CC#N)(n2nc(Nc3ccccc3)c3c(=O)[nH]ccc32)C1 [Example 1-1, tert-butyl 3-(cyanomethyl)-3-(4-oxo-3-(phenylamino)-4,5-dihydro-1H-pyrazolo[4,3-c]pyridin-1-yl)azetidine-1-carboxylate] | 2.23 nM | 25 nM
CC(C)(C)OC(=O)N1CC(CC#N)(n2nc(Nc3ccc(F)cc3)c3c(=O)[nH]ccc32)C1 [Example 4-3, tert-butyl 3-(cyanomethyl)-3-(3-((4-fluorophenyl)amino)-4-oxo-4,5-dihydro-1H-pyrazolo[4,3-c]pyridin-1-yl)azetidine-1-carboxylate] | 2.64 nM | 36 nM
Cc1cc(Nc2nn(C3(CC#N)CCN(C(=O)OC(C)(C)C)CC3)c3cc[nH]c(=O)c23)ccc1C(=O)N1C2CCC1COC2 [Example 21-13, tert-butyl 4-(cyanomethyl)-4-{3-[(5-methyl-4-{3-oxa-8-azabicyclo[3.2.1]octan-8-ylcarbonyl}cyclohexa-1,3,5-trien-1-yl)amino]-4-oxo-5H-pyrazolo[4,3-c]pyridin-1-yl}piperidine-1-carboxylate] | 0.27 nM | 0.2 nM
CN(C)S(=O)(=O)c1ccc(Nc2nn(C3(CC#N)CCN(C(=O)OC4CCSCC4)CC3)c3cc[nH]c(=O)c23)cc1 [Example 11-4, tetrahydro-2H-thiopyran-4-yl 4-(cyanomethyl)-4-(3-((4-(N,N-dimethylsulfamoyl)phenyl)amino)-4-oxo-4,5-dihydro-1H-pyrazolo[4,3-c]pyridin-1-yl)piperidine-1-carboxylate] | 0.27 nM | 1.45 nM

Second part, the compound after the results:

IC50 [1] | IC50 [2] | SMILES
0.56 nM | 0.68 nM | CC(C)(C)NC(c1ccc(Nc2nn([C@]3(CC#N)CC[C@@H](C(=O)OC(C)(C)C)OC3)c3cc[nH]c(=O)c23)cc1)C(F)(F)F (single isomer, unassigned) [Example 5-195, (2S,5S)-tert-butyl 5-(3-((4-((R or S)-1-(tert-butylamino)-2,2,2-trifluoroethyl)phenyl)amino)-4-oxo-4,5-dihydro-1H-pyrazolo [4,3-c]pyridin-1-yl)-5-(cyanomethyl)tetrahydro-2H-pyran-2-carboxylate]
0.07 nM | 0.63 nM | CC(C)(C)OC(=O)[C@@H]1CC[C@@](CC#N)(n2nc(Nc3ccc4ncccc4c3)c3c(=O)[nH]ccc32)CO1 [Example 5-215, (2S,5S)-tert-butyl 5-(cyanomethyl)-5-(4-oxo-3-(quinolin-6-ylamino)-4,5-dihydro-1H-pyrazolo[4,3-c]pyridin-1-yl)tetrahydro-2H-pyran-2-carboxylate]
3.43 nM | 29.3 nM | CC(C)(C)OC(=O)[C@@H]1CC[C@](CC#N)(n2nc(Nc3ccc(S(C)(=O)=O)cc3)c3c(=O)[nH]ccc32)CO1 (racemic) [Example 5-35, (2R,5S and 2S,5R)-tert-butyl 5-(cyanomethyl)-5-(3-((4-(methylsulfonyl)phenyl)amino)-4-oxo-4,5-dihydro-1H-pyrazolo [4,3-c]pyridin-1-yl) tetrahydro-2H-pyran-2-carboxylate]
11.8 nM | 34.5 nM | CC(C)(C)OC(=O)[C@H]1CC[C@@](CC#N)(n2nc(Nc3ccc([C@@H](N)C(F)(F)F)cc3)c3c(=O)[nH]ccc32)CO1 (single isomer, unassigned) [Example 5-50, (2R,5S)-tert-butyl 5-(3-((4-((R or S)-1-amino-2,2,2-trifluoroethyl)phenyl)amino)-4-oxo-4,5-dihydro-1H-pyrazolo[4,3-c]pyridin-1-yl)-5-(cyanomethyl) tetrahydro-2H-pyran-2-carboxylate]
0.07 nM | 0.23 nM | CC(C)(C)OC(=O)[C@@H]1CC[C@@](CC#N)(n2nc(Nc3ccc(C(N)C(F)(F)F)cc3)c3c(=O)[nH]ccc32)CO1 (stereo partly drawn) [Example 5-103, (2S,5S)-tert-butyl 5-(3-((4-(1-amino-2,2,2-trifluoroethyl)phenyl)amino)-4-oxo-4,5-dihydro-1H-pyrazolo[4,3-c]pyridin-1-yl)-5-(cyanomethyl)tetrahydro-2H-pyran-2-carboxylate]
0.46 nM | 1 nM | CC(C)(C)OC(=O)[C@@H]1CC[C@@](CC#N)(n2nc(Nc3ccc4c(c3)CC(C)(C)C4(O)C(F)(F)F)c3c(=O)[nH]ccc32)CO1 (single isomer, unassigned) [Example 5-165, (2S,5S)-tert-butyl 5-(cyanomethyl)-5-(3-(((S or R)-1-hydroxy-2,2-dimethyl-1-(trifluoromethyl)-2,3-dihydro-1H-inden-5-yl)amino)-4-oxo-4,5-dihydro-1H-pyrazolo[4,3-c]pyridin-1-yl)tetrahydro-2H-pyran-2-carboxylate]
0.14 nM | 0.21 nM | CC(C)(C)OC(=O)[C@@H]1CC[C@@](CC#N)(n2nc(Nc3ccc(S(=O)(=O)C(C)(C)C)cc3)c3c(=O)[nH]ccc32)CO1 [Example 5-235, (2S,5S)-tert-butyl 5-(3-((4-(tert-butylsulfonyl)phenyl)amino)-4-oxo-4,5-dihydro-1H-pyrazolo[4,3-c]pyridin-1-yl)-5-(cyanomethyl) tetrahydro-2H-pyran-2-carboxylate]
11.7 nM | 30.3 nM | CC(C)(C)OC(=O)[C@H]1CC[C@@](CC#N)(n2nc(Nc3ccc([C@H](N)C(F)(F)F)cc3)c3c(=O)[nH]ccc32)CO1 (single isomer, unassigned) [Example 5-52, (2R,5S)-tert-butyl 5-(3-((4-((S or R)-1-amino-2,2,2-trifluoroethyl)phenyl)amino)-4-oxo-4,5-dihydro-1H-pyrazolo[4,3-c]pyridin-1-yl)-5-(cyanomethyl) tetrahydro-2H-pyran-2-carboxylate]
